The subject of series [1] is HCoV-OC43. Description: Viral release (intracellular versus supernatant viral RNA). The class given is cell-based. On the procedure:
To obtain further insight into the stage at which DBM inhibits the replication of HCoV-OC43 and other HCoVs, RD cells were incubated with compounds, including DBM, remdesivir (RDV), and chloroquine (CQ), at different stages of viral infection. Viral RNA from the supernatant was extracted and quantitatively analysed via qRT-PCR. […] For the viral binding assay, cells were cultured in the presence or absence of DBM at different concentrations for 1 hour before being infected with HCoV-OC43 at an MOI of 50, and then were placed on ice for 2 hours for the viral particles to bind to the membrane of the host cells, followed by washing with PBS. […] To determine whether DBM influences viral release, we quantified viral RNA both intracellularly and in the supernatant.
A) Efficacy of DBM, remdesivir (RDV), and chloroquine (CQ) in inhibiting virus replication at different stages of administration. […] C) Fluorescence images of cell-cell fusion induced by the transient expression of HCoV-OC43 spike proteins and eGFP (green) in RD cells. […] D) Confocal fluorescence microscopy images showing HCoV-OC43 internalization. E) Quantification of intracellular viral particles per cell, based on images obtained from confocal fluorescence microscopy. […] Data were statistically analysed with Student’s T test. *: p ≤ 0.05, **: p ≤ 0.01, ***: p ≤ 0.001, ****: p ≤ 0.0001; ns, not significant. […]

Series [2] relates to HCoV-229E. Nature of the series: Antiviral activity in vitro, viral RNA copies by qRT-PCR, HCoV-229E in Huh-7 cells. As to conditions: for EC50 (229E, Huh-7): inhibition at the concentration: replicates. The class given is cell-based. In general terms: In qPCR the cycle at which signal appears reflects the starting amount.
The nature of series [3]: Metabolic stability in human liver microsomes. The class given is in vitro ADME. Conditions: average, read-out: T1/2 of metabolism. On the procedure:
Thus, a pharmacokinetic study was performed for DBM in Sprague-Dawley (SD) rats. Following oral administration of menstruum or DBM at 200 mpk, blood samples from the rats were collected at 2 min, 5 min, 15 min, 30 min, 1 h, 2 h, 4 h, 8 h, and 24 h posttreatment. The concentration of DBM in the plasma was determined by liquid chromatography with tandem mass spectrometry (LC-MS/MS). The minimum effective concentration (MEC) line in the graph represents the EC95 value of DBM (Fig 3C). […] To analyse the metabolic stability of DBM, we incubated human and mouse liver microsomes with DBM. The T1/2 of metabolism was an average of 13.92 min in human liver microsomes and 4.84 min in mouse liver microsomes.

The test system of series [4] is HCoV-OC43. Description: HCoV-OC43 nucleocapsid protein and caspase-6 in infected cells (Western blot). The class given is cell-based. As to conditions: cells pretreated with serially diluted compound. Background: Immunoblotting shows a protein as a band on a membrane.
Series [5] concerns the target T1, caspase-6 (Homo sapiens, UniProt P55212).
T1 construct: endogenous in cells
T1 sequence (P55212 24-293): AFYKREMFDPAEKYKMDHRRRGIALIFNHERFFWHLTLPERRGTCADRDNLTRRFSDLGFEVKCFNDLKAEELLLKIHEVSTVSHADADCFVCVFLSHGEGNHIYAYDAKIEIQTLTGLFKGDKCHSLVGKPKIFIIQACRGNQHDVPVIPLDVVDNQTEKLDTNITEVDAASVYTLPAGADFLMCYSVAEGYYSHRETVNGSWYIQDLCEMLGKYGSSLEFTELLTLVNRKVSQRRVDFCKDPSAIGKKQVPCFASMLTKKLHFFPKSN
The class given is cell-based.

pEC50: −log10 of the molar value. Several values for one entry are separate records, joined by “and”; a condition that tells them apart may be missing. Identical values can stand only once. Like-named read-outs stand apart in the source and are kept apart here.

The results in this text go back to paper PMC12431657, “Discovery and mechanistic insights of dibenzoylmethane as a broad spectrum inhibitor of coronavirus” (PLOS Pathogens, 2025).

One may read the pEC50 as the negative decadic logarithm of the EC50, by convention in mol/L.

Regarding `O=C(CC(=O)c1ccccc1)c1ccccc1` [DBM, dibenzoylmethane], the “proportion of viral RNAs released into the supernatant versus controls” value in series [1] is reported as “No significant difference”. Besides, the “Proportion of release of HCoV-OC43 RNA” value in series [1] (DBM-treated samples, replicates) is 0.9 and 1.5 and 5.8. Besides, the pEC50 in series [2] (Human coronavirus 229E, Huh-7, 24 h, read-out: EC50 HCoV-229E (Huh-7)) was 5.17. Also, the “EC50 (229E, Huh-7): inhibition at the concentration” value in series [2] (conc. 0.1 (unit not given)) was 60.8 and 22.3 and 20.2; in series [2] (conc. 0.2 (unit not given)) it was 25.5 and 35.2; in series [2] (conc. 0.7 (unit not given)), 37.7 and 44.1; in series [2] (conc. 2.2 (unit not given)), 13.1 and 6.1 and 18.7; in series [2] (conc. 6.7 (unit not given)) it was 65 and 69.4 and 38.7; in series [2] (conc. 20 (unit not given)), 91.1 and 94.4 and 99.5. Besides, the half-life in series [3] worked out at 13.9 min. For the same compound, the “virus replication (nucleocapsid protein, Western blot)” value in series [4] is recorded as “inhibited virus replication”. In series [5], the “activity of caspase-6 in treated cells” value is recorded as “decrease in the activity of caspase-6”. Further, the “Caspase-6 activity (Fig5J)” value in series [5] (time point 0, replicates) is 8.2 and 8.1 and 9.0; in series [5] (time point 2, replicates) it was 11.9 and 12.2 and 11.5; in series [5] (time point 4, replicates), 16.7 and 15.6 and 16.4; in series [5] (time point 6, replicates) it was 12.2 and 13.5 and 13.6; in series [5] (time point 8, replicates), 13.0 and 12.4 and 9.9.
